According to US8642053B2, “Potentiated topical composition” (priority 2001, dated 2014):

Experiments:
[1] = In vitro water binding capacity, stratum corneum pieces, 24 hours at 85% relative humidity; parameters: species or system human; conditions: after 24 hours, mean, pentane-1,5-diol 20%, urea 10%, control water content subtracted
Procedure: Pieces of stratum corneum from the sole of 7 healthy volunteers were used. […] The specimens were removed after 24 hours for weighing. […] The water binding capacity was estimated by subtracting the WC for stratum corneum incubated with distilled water for 24 hours from the WC for the stratum corneum pieces incubated with the test substances for 24 hours. […] While the latter composition does give rise to itching when applied to eczematous skin, this negative effect is not encountered with the composition according to the invention.

[2] = In vitro water binding capacity, stratum corneum pieces, 6 hrs at 85% relative humidity; conditions: for Water binding capacity after 6 hrs: aqueous 10% by weight solution; for Uptake of water after 6 hrs / Uptake of water after 6 hrs %: pre-incubated with 10% (by weight) solution, relative humidity 85%, room temperature
[3] = test system: eye (conjunctiva) of albino rabbits; experiment: Eye irritation test; type: in vivo, rabbit; conditions: 1-10 scale
Source text: (§1) Only very mild irritation (score 2 on a 1-10 scale) was observed.

[4] = test system: shaved skin of albino rabbits; experiment: Skin irritation test; type: in vivo, rabbit; conditions: scale 1 (no irritation) to 10 (maximum irritation); 24 hours exposure
Source text: as §1

[5] = aqueous solution containing 20% of pentane-1,5-diol

| SMILES | Water binding capacity [1] [%] | Water binding capacity ([1]; listed as Urea) [%] | Water binding capacity after 6 hrs [2] [% by weight] | Uptake of water after 6 hrs [2] [mg] | Uptake of water after 6 hrs % [2] [%] | Water binding capacity ([1]; listed as Pentane-1,5-diol) [%] | Water binding capacity [2, 5] [% by weight] | Water content [2, 5] [%] | Eye irritation score [3] | Skin irritation score [4] |
| --- | --- | --- | --- | --- | --- | --- | --- | --- | --- | --- |
| NC(N)=O [urea] | 16 | 16 | 17 | 0.0109 | 28 |  |  |  |  |  |
| CC(O)CO (centres unmarked) [propane-1,2-diol] |  |  | 7 | 0.0032 | 18 |  |  |  |  |  |
| OCCCCCO [pentane-1,5-diol] | 23 |  | 9 | 0.0075 | 20 | 23 | 13 | 24 | 2 | 1 |
